Experimental data taken from US20030109490A1, “Composite stimulating iNOS enzyme which induce immuno-reactant nitric oxide synthesis and process for preparing the same” (priority 2001, published 2003).

Columns and labels:
[1] = anti-oxidative activity calculated as UV blocking value; type: physicochemical; settings: 528 nm
Description: The anti-oxidative activity of the composite of this invention was measured at the wavelength of 528 nm using an UV-visible spectrometer (Cary, Virian Co., USA).

[2] = system: Macrophage RAW264.7; assay: NO production by macrophage RAW264.7 (microplate assay, griess reagent); type: cell-based; settings: TAXOL 10 μg/ml
[3] = system: Macrophage RAW 264.7; assay: TNF-α secretion of macrophage RAW 264.7 (ELISA); type: cell-based; settings: rIFN-γ alone, no LPS, no composite, 28 hrs

In the case of `O=C1O[C@H]([C@@H](O)CO)C(O)=C1O` [Vitamin C], the “anti-oxidative activity (UV blocking value)” value (“anti-oxidative activity” for short) ([1]; 0.1% solution) is reported as 21.23%, the “anti-oxidative activity” value ([1]; 0.5% solution) is reported as 28.51% and the “anti-oxidative activity” value ([1]; 1% solution) is reported as 47.83%. For the same molecule, the “anti-oxidative activity” value ([1]; 2% solution) was 58.28%.

Work on `CC(=O)O[C@H]1C(=O)[C@@]2(C)[C@H]([C@H](OC(=O)c3ccccc3)[C@]3(O)C[C@H](OC(=O)[C@H](O)[C@@H](NC(=O)c4ccccc4)c4ccccc4)C(C)=C1C3(C)C)[C@]1(OC(C)=O)CO[C@@H]1C[C@@H]2O` [TAXOL ®] yielded an NO ([2]; rIFN-γ added, no LPS, 0 h) of under 4.0 µM, an NO ([2]; rIFN-γ added, no LPS, 12 h) of 30.56 ± 3.2 µM and an NO ([2]; rIFN-γ and LPS added, 24 h) of 45.1 ± 1.2 µM.

B1: rIFN-γ: recombinant IFN-γ used to stimulate macrophage RAW264.7 (protein, UniProt P01580 23-155, looked up)
Interferon gamma: HGTVIESLESLNNYFNSSGIDVEEKSLFLDIWRNWQKDGDMKILQSQIISFYLRLFEVLKDNQAISNNISVIESHLITTFFSNSKAKKDAFMSIAKFEVNNPQVQRQAFNELIRVVHQLLPESSLRKRKRSRC
B1 showed a TNF-a [3] of 0.76 ± 0.02 ng/mL.
